Reference: US10104891B2 (priority 2014, dated 2018)

How the values were obtained:
Type in all cases: in vivo
Phytophthora infestans = assay: whole plant or invertebrate; conditions: for control value (Test 1): tomato late blight, control value vs untreated section; for pest or weed control at 4 µg/mL: Phytophthora infestans, in Solanum lycopersicum, 96 h, read-out: control value (Test 1)
Plasmopara viticola = assay: Test 3: control effect against grape downy mildew; conditions: control value vs untreated section; for pest or weed control at 4 µg/mL: Plasmopara viticola, 120 h
Method in brief: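 Leaf lesion area, scored 5 days after inoculation and compared with untreated plants, gives the control value. Inoculation used P. viticola zoospores (1.0×10^4 units/ml) with a 16 hr moist incubation at 22° C. It followed by one day a spray of 4 ppm compound (wettable powder in Tween20) onto Neomuscat seedlings.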

[1] = tested on: Pseudoperonospora cubensis; assay: Test 2: control effect against cucumber downy mildew; conditions: control value vs untreated section; for pest or weed control at 4 µg/mL: Pseudoperonospora cubensis, 120 h
Method in brief: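 Protective test: zoospores (1.0×10^4 units/ml) misted one day after applying a 4 ppm suspension (wettable powder diluted in 1/5000 Tween20) to 2-leaf cucumber, Sagami hanjiro. After 16 hr at 22° C humid incubation, leaf lesion area read at day 5, expressed as control value versus untreated leaves.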

Structure (SMILES)	control value (Test 1) (Phytophthora infestans)	control value (Test 3) (Plasmopara viticola)	control value (Test 2) [1]	pest or weed control at 4 µg/mL (Phytophthora infestans) [%]	pest or weed control at 4 µg/mL (Plasmopara viticola) [%]	pest or weed control at 4 µg/mL [1] [%]
O=C(Cn1nc(C(F)(F)F)cc1C(F)(F)F)N1CCC(c2nc(C3OCc4cccc(OC(F)F)c4CO3)cs2)CC1 (stereo not drawn) [Compound 1-137]	100	100	100			
CS(=O)(=O)Oc1ccc2c(c1)COC(c1csc(C3CCN(C(=O)Cn4nc(C(F)F)cc4C(F)F)CC3)n1)OC2 (stereo not drawn) [Compound 1-138]	100	100	100			
CS(=O)(=O)Oc1ccc2c(c1)COC(c1csc(C3CCN(C(=O)Cn4nc(C(F)(F)F)cc4C(F)(F)F)CC3)n1)OC2 (stereo not drawn) [Compound 1-139]	100	100	100			
COc1cccc2c1COC(c1csc(C3CCN(C(=O)Cn4nc(C(F)F)cc4C(F)F)CC3)n1)OC2 (stereo not drawn) [Compound 1-141]	100	100	100			
COc1ccc(F)c2c1COC(c1csc(C3CCN(C(=O)Cn4nc(C(F)(F)F)cc4C(F)(F)F)CC3)n1)OC2 (stereo not drawn) [Compound 1-142]	100	100	100			
Cc1cc(C(F)(F)F)nn1CC(=O)N1CCC(c2nc(C3OCc4c(OC(F)F)ccc(OS(C)(=O)=O)c4CO3)cs2)CC1 (stereo not drawn) [Compound 1-143]	100	100	100			
O=C(Cn1nc(C(F)F)cc1C(F)F)N1CCC(c2nc(C3OCc4cccc(C=NO)c4CO3)cs2)CC1 (stereo not drawn) [Compound 1-145]	100	100	100			
CS(=O)(=O)Oc1ccc(OS(C)(=O)=O)c2c1COC(c1csc(C3CCN(C(=O)Cn4nc(C(F)F)cc4C(F)F)CC3)n1)OC2 [Compound 1-146]	100	100	100			
CS(=O)(=O)Oc1ccc(OS(C)(=O)=O)c2c1COC(c1csc(C3CCN(C(=O)Cn4nc(C(F)(F)F)cc4C(F)(F)F)CC3)n1)OC2 [Compound 1-147, 4-[4-[6,9-bis(methylsulfonyloxy)-1,5-dihydro-3H-2,4-benzodioxepin-3-yl]-2-thiazolyl]-1-[2-[3,5-bis(trifluoromethyl)-1H-pyrazole-1-yl]acetyl]piperidine]				90	70	90
N#Cc1cccc2c1COC(c1csc(C3CCN(C(=O)Cn4nc(C(F)F)cc4C(F)F)CC3)n1)OC2 (stereo not drawn) [Compound 1-148]	100	100	100			
O=C(Cn1nc(C(F)(F)F)cc1C(F)(F)F)N1CCC(c2nc(C3OCc4cccc(C=NO)c4CO3)cs2)CC1 (stereo not drawn) [Compound 1-149]	100	100	100			
N#Cc1cccc2c1COC(c1csc(C3CCN(C(=O)Cn4nc(C(F)(F)F)cc4C(F)(F)F)CC3)n1)OC2 (stereo not drawn) [Compound 1-150]	100	100	100			
CS(=O)(=O)Oc1cccc2c1COC(c1csc(N3CCN(C(=O)Cn4nc(C(F)F)cc4C(F)F)CC3)n1)OC2 (stereo not drawn) [Compound 1-151]	100	100	100			
Cc1cc(C(F)(F)F)nn1C(C)C(=O)N1CCC(c2nc(C3OCc4cccc(OS(C)(=O)=O)c4CO3)cs2)CC1 (stereo not drawn) [Compound 1-152]	100	100	100			
Cc1cc(C(F)F)nn1CC(=O)N1CCC(c2nc(C3OCc4c(F)ccc(OS(C)(=O)=O)c4CO3)cs2)CC1 (stereo not drawn) [Compound 1-153]	100	100	100			
Cc1cc(C(F)(F)F)nn1CC(=O)N1CCC(c2nc(C3(C)OCc4c(F)ccc(OS(C)(=O)=O)c4CO3)cs2)CC1 (stereo not drawn) [Compound 1-154]	90	100	100			
Cc1cc(C(F)(F)F)nn1C(F)(F)C(=O)N1CCC(c2nc(C3OCc4c(F)ccc(OS(C)(=O)=O)c4CO3)cs2)CC1 (stereo not drawn) [Compound 1-155]	100	100	100			
Cc1cc(C(F)(F)F)nn1C(C)C(=O)N1CCC(c2nc(C3OCc4c(F)ccc(OS(C)(=O)=O)c4CO3)cs2)CC1 (stereo not drawn) [Compound 1-156]	100	100	100			
Cc1cc(C(F)(F)F)nn1CC(=O)N1CCC(c2nc(C3OCc4c(F)ccc(OS(C)(=O)=O)c4CO3)cs2)C(C)C1 (stereo not drawn) [Compound 1-157]	100	100	100			

Structure (SMILES)	control value (Test 1) (Phytophthora infestans)	control value (Test 3) (Plasmopara viticola)	control value (Test 2) [1]	pest or weed control at 4 µg/mL (Phytophthora infestans) [%]	pest or weed control at 4 µg/mL (Plasmopara viticola) [%]	pest or weed control at 4 µg/mL [1] [%]
Cc1cc(C(F)(F)F)nn1CC(=O)N1CCC(c2nc(C3OCc4c(F)ccc(OS(C)(=O)=O)c4CO3)cs2)CC1C (stereo not drawn) [Compound 1-159]	100	100	100			
CC(C(=O)N1CCC(c2nc(C3OCc4c(F)ccc(OS(C)(=O)=O)c4CO3)cs2)CC1)n1nc(C(F)F)cc1C(F)F (stereo not drawn) [Compound 1-160]	100	100	100			
Cc1cc(C(F)(F)F)nn1CC(=O)N1CCC(c2nc(C3OCc4c(O)ccc(F)c4CO3)cs2)CC1 (stereo not drawn) [Compound 1-161]	100	100	100			
Cc1ccc(C)c(CC(=O)N2CCC(c3nc(C4OCc5c(F)ccc(F)c5CO4)cs3)CC2)c1 [Compound 2-6]	100	100	100			
Cc1ccc(C)c(CC(=O)N2CCC(c3nc(C4OCc5c(F)ccc(OS(C)(=O)=O)c5CO4)cs3)CC2)c1 (stereo not drawn) [Compound 2-8]	100	100	100			
COc1ccc([N+](=O)[O-])c2c1COC(c1csc(C3CCN(C(=O)Cc4cc(C)ccc4C)CC3)n1)OC2 (stereo not drawn) [Compound 2-9]	100	100	100			
Cc1ccc(C)c(CC(=O)N2CCC(c3nc(C4OCc5ccccc5CO4)cs3)CC2)c1 [Compound 2-11]	100	100	100			
CCCCS(=O)(=O)Oc1cccc2c1COC(c1csc(C3CCN(C(=O)Cc4cc(C)ccc4C)CC3)n1)OC2 (stereo not drawn) [Compound 2-12, 4-[4-(6-butylsulfonyloxy-1,5-dihydro-3H-2,4-benzodioxepin-3-yl)-2-thiazolyl]-1-[2-(2,5-dimethylphenyl)acetyl]piperidine]				80	80	90
Cc1ccc(C)c(NC(=O)N2CCC(c3nc(C4OCc5c(F)ccc(OS(C)(=O)=O)c5CO4)cs3)CC2)c1 (stereo not drawn) [Compound 2-14]	100	100	100			
Cc1ccc(C)c(NC(=O)N2CCC(c3nc(C4OCc5c(F)ccc(F)c5CO4)cs3)CC2)c1 [Compound 2-15]	100	100	100			
CS(=O)(=O)Oc1ccc(F)c2c1COC(c1csc(C3CCN(C(=O)Cc4cc(Cl)ccc4Cl)CC3)n1)OC2 (stereo not drawn) [Compound 2-16]	100	100	100			
Cc1ccc(C)c(CC(=O)N2CCC(c3nc(C4OCc5cccc(Br)c5CO4)cs3)CC2)c1 (stereo not drawn) [Compound 2-17]	90	100	100			
O=C(Cc1cc(Cl)ccc1Cl)N1CCC(c2nc(C3OCc4ccc([N+](=O)[O-])cc4CO3)cs2)CC1 (stereo not drawn) [Compound 2-21]	50	100	100			
COc1ccc(Br)c2c1COC(c1csc(C3CCN(C(=O)Cc4cc(C)ccc4C)CC3)n1)OC2 (stereo not drawn) [Compound 2-24]	100	100	100			
COc1ccc(Br)c2c1COC(c1csc(C3CCN(C(=O)Cc4cc(Cl)ccc4Cl)CC3)n1)OC2 (stereo not drawn) [Compound 2-25]	40	100	100			
COc1ccc(OS(C)(=O)=O)c2c1COC(c1csc(C3CCN(C(=O)Cc4cc(Cl)ccc4Cl)CC3)n1)OC2 (stereo not drawn) [Compound 2-26]	100	100	100			
Cc1ccc(C)c(CC(=O)N2CCC(c3nc(C4OCc5c(F)c(F)c(F)c(F)c5CO4)cs3)CC2)c1 [Compound 2-27]	100	100	100			
COc1ccc(OS(C)(=O)=O)c2c1COC(c1csc(C3CCN(C(=O)Cc4cc(C)ccc4C)CC3)n1)OC2 (stereo not drawn) [Compound 2-28]	90	100	100			
CS(=O)(=O)Oc1cccc2c1COC(c1csc(C3CCN(C(=O)Cc4cc(C(F)(F)F)ccc4C(F)(F)F)CC3)n1)OC2 (stereo not drawn) [Compound 2-30, 4-[4-(6-methylsulfonyloxy-1,5-dihydro-3H-2,4-benzodioxepin-3-yl)-2-thiazolyl]-1-[2-[2,5-bis(trifluoromethyl)phenyl]acetyl]piperidine]				30	100	100
